Results taken from the NIST ThermoML archive (doi:10.1021/je300799f).

Tests used:
[1] = Liquid; for mass density: 101.3 kPa, Vibrating tube method; for vapor or sublimation pressure: Ebulliometric method (Recirculating still)
[2] = refractive index (Na D-line) (dimensionless); details: 298.15 K; 101.33 kPa; Liquid; Standard Abbe refractometry

CCCC(=O)OC [methyl butanoate]
[1]
Details	mass density [kg/m3]	vapor or sublimation pressure [kPa]
288.15 K	903.31	–
298.15 K	892.31	–
308.15 K	881.19	–
318.15 K	870.06	–
328.15 K	858.8	–
354.1 K	–	50
355.47 K	–	52.5
356.79 K	–	55
358.1 K	–	57.5
359.34 K	–	60
360.56 K	–	62.5
361.72 K	–	65
362.84 K	–	67.5
363.94 K	–	70
364.99 K	–	72.5
366.05 K	–	75
367.04 K	–	77.5
368.03 K	–	80
369 K	–	82.5
370.01 K	–	85
370.93 K	–	87.5
371.84 K	–	90
372.72 K	–	92.5
373.58 K	–	95
374.42 K	–	97.5
375.27 K	–	100
375.74 K	–	101.32
376.91 K	–	105
378.42 K	–	110
379.91 K	–	115
381.34 K	–	120
382.73 K	–	125
384.07 K	–	130
385.37 K	–	135
386.63 K	–	140
387.87 K	–	145
389.07 K	–	150
390.24 K	–	155
391.38 K	–	160
392.48 K	–	165
393.58 K	–	170
394.64 K	–	175
395.67 K	–	180
396.7 K	–	185
397.68 K	–	190
398.67 K	–	195
399.61 K	–	200
400.54 K	–	205
401.46 K	–	210
402.37 K	–	215
403.25 K	–	220
404.13 K	–	225
404.97 K	–	230
405.81 K	–	235
406.64 K	–	240
407.45 K	–	245
408.26 K	–	250
409.05 K	–	255
409.83 K	–	260
410.58 K	–	265
411.35 K	–	270
412.09 K	–	275
412.83 K	–	280

Details	refractive index
[2]	1.3851
